Laboratory results published in patent US12065416B2, “cGAS antagonist compounds” (IMMUNESENSOR THERAPEUTICS, INC., priority 2016, dated 2024).

Assays:
[1] = molecular target: T1, recombinant cGAS (aa147-522) (Homo sapiens, UniProt Q8N884); test: In vitro assay for inhibition of cGAS activity (ATP consumption, Kinase Glo); format: biochemical; details: 37° C. 20 minutes, read-out: Activity (Inhibition of cGAS enzyme activity in vitro, IC50)
T1 construct: recombinant cGAS (aa147-522); His6-SUMO (N, cleaved yes); made in house; host or cells: E. coli BL21/pLys
T1 sequence (Q8N884 147-522): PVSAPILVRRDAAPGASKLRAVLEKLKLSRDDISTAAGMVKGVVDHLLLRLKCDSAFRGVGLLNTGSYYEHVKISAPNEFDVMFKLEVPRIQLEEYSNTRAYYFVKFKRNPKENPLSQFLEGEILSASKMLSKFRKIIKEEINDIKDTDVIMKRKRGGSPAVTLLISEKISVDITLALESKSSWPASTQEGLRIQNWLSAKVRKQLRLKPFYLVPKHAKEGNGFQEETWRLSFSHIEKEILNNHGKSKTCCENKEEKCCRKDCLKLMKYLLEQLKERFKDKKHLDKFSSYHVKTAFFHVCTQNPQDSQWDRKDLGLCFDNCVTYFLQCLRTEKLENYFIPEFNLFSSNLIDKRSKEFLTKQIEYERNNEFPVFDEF
Method in brief: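 Human cGAS (aa147-522) at 1.5 ng/μL incubated with serially diluted compound at 37° C for 20 min; remaining ATP read by Kinase Glo luminescence. IC50 from percent ATP consumption plotted against log compound concentration.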

RIG-I-MAVS pathway = test: Specificity assay: ISRE reporter THP1 cells infected with Sendai Virus (SeV); format: cell-based; details: Homo sapiens, THP-1; ISRE-Gaussia luciferase reporter THP1 cells infected with Sendai Virus (SeV) at 50 Unit/mL
Experimental: (§1) A reporter THP1 cell line harboring a gene encoding Gaussia Luciferase under the control of 5 tandem repeats of interferon-stimulated response elements (ISRE) was used to test inhibition of cGAS activity by synthetic compounds in human cells. These cells were plated on 96-well plates at 0.3×10^6/well and incubated with various concentrations of compounds or DMSO for 5 min, followed by transfection of 2 μg/mL of ISD (Interferon Stimulatory DNA, a 45 bp DNA oligo) or mock transfected using lipofectamine 2000 (Life Technology) method, according to manufacturer's instructions. 16 hours later, 15 μL of the media from each well is transferred to a new plate, 50 μL of solution containing 50 mM Hepes-NaOH, 50 mM NaCl, 10 mM EDTA, 1 μM of coeleanterazine was added to each well and luminescence was measured immediately. Fold increase in luminescence compared to mock transfection is plotted against concentrations of each compound, and IC50 is calculated using Graphpad. To evaluate the specificity of a compound, the same procedure was performed except that cells were transfected with 2 μg/mL poly(I:C) or infected with Sendai Virus (SeV) at 50 Unit/mL, which are known to activate the RIG-I-MAVS pathway. A specific inhibitory compound should inhibit interferon induction by DNA but have minimal effect on poly(I:C) or Sendai virus induced interferon reporter gene expression.

[2] = tested on: cGAS activity in THP1 cells; test: Cellular assay: ISRE-Gaussia luciferase reporter THP1 cells transfected with ISD (Interferon Stimulatory DNA); format: cell-based; details: Homo sapiens, THP-1; ISRE-Gaussia luciferase reporter THP1 cells transfected with 2 μg/mL ISD, 16 hours; read-out: THP1-ISD (Inhibition of cGAS activity in THP1 cells, IC50)
Experimental: as §1

Compound | IC50 [1] [µM] | IC50 (RIG-I-MAVS pathway) [µM] | IC50 [2] [µM]
CN1C(=O)S/C(=C\c2cc(OC(F)(F)F)c(O)cc2Br)C1=O [Ex57] | 0.5 to 10 | 2.5 to 10 | ≤ 2.5
CN1C(=O)S/C(=C\c2cc(OCc3cnc4ccccc4c3)c(O)cc2Br)C1=O [Ex177] | 0.5 to 10 | ≥ 10 | 2.5 to 10
CN1C(=O)S/C(=C\c2cc(OCc3cnc[nH]3)c(O)cc2Br)C1=O [Ex137] | 0.5 to 10 | ≥ 10 | 2.5 to 10
CNc1ncc(COc2cc(/C=C3\Sc4ncccc4C3=O)c(Br)cc2O)cn1 [Ex195] | ≤ 0.5 | ≥ 10 | 2.5 to 10
COc1cc(/C=C2\Sc3ncccc3C2=O)c(Br)c(F)c1O [Ex75] | ≤ 0.5 | ≥ 10 | 2.5 to 10
CN1C(=O)S/C(=C\c2cc(OCc3cnc(N)nc3)c(O)cc2Br)C1=O [Ex147] | ≤ 0.5 | ≥ 10 | ≤ 2.5
CN1C(=O)S/C(=C\c2cc(OCc3ccnc4[nH]cnc34)c(O)cc2Br)C1=O [Ex68] | ≤ 0.5 | ≥ 10 | ≤ 2.5
CN1C(=O)S/C(=C\c2cc(OCc3cnc(NCCO)nc3)c(O)c(F)c2Br)C1=O [Ex152] | ≤ 0.5 | ≥ 10 | ≤ 2.5
CN1C(=O)S/C(=C\c2cc(OCc3cnc(NN)nc3)c(O)cc2Br)C1=O [Ex184] | ≤ 0.5 | ≥ 10 | ≤ 2.5
CN1C(=O)S/C(=C\c2cc(OCc3cn(-c4ccncc4)nn3)c(O)cc2Br)C1=O [Ex233] | ≥ 10 | ≥ 10 | 2.5 to 10
CN1C(=O)S/C(=C\c2cc(OCc3cnc(N)nc3)c(Oc3cnc(N)s3)cc2Br)C1=O [Ex211] | 0.5 to 10 | ≥ 10 | 2.5 to 10
CC(C)C(=O)N1CCC(COc2cc(/C=C3\SC(=O)N(C)C3=O)c(Br)cc2O)CC1 [Ex87] | 0.5 to 10 | ≥ 10 | 2.5 to 10
CC(Oc1cc(/C=C2\SC(=O)N(C)C2=O)c(Br)c(F)c1O)C(O)c1cnc(N)nc1 (stereo not drawn) [ExB4] | ≤ 0.5 | ≥ 10 | ≥ 10
